≈ marks a conversion by molar mass, not a printed value.
Legend:
[1] = Selectivity index, ratio of CC50 for human THP-1 cells to MIC for Staphylococcus aureus MTCC 96; assay type: toxicity
Staphylococcus aureus [2] = test: Antibacterial activity against Staphylococcus aureus MTCC 96 assessed as inhibition of bacterial growth by microtiter broth dilution method; assay type: functional
THP-1 [3] = test: Cytotoxicity against human THP-1 cells assessed as reduction in cell viability at 200 uM by MTT assay; assay type: cell-based; details: thp-1, 200 µM
Staphylococcus aureus [4] = test: Antibacterial activity against Staphylococcus aureus MLS16 MTCC 2940 assessed as inhibition of bacterial growth by microtiter broth dilution method; assay type: functional
Pseudomonas aeruginosa [5] = test: Antibacterial activity against Pseudomonas aeruginosa MTCC 2453 assessed as inhibition of bacterial growth by microtiter broth dilution method; assay type: functional
Raoultella planticola [6] = test: Antibacterial activity against Klebsiella planticola MTCC 530 assessed as inhibition of bacterial growth by microtiter broth dilution method; assay type: functional
Staphylococcus aureus [7] = test: Bactericidal activity against Staphylococcus aureus MTCC 96; assay type: functional
Escherichia coli [8] = test: Antibacterial activity against Escherichia coli MTCC 739 assessed as inhibition of bacterial growth by microtiter broth dilution method; assay type: functional
[9] = Cytotoxicity against human THP-1 cells; assay type: cell-based
Bacillus subtilis [10] = test: Antibacterial activity against Bacillus subtilis MTCC 121 assessed as inhibition of bacterial growth by microtiter broth dilution method; assay type: functional
THP-1 [11] = test: Cytotoxicity against human THP-1 cells assessed as cell damage at 200 uM by LDH assay; assay type: cell-based; details: thp-1, 200 µM
Micrococcus luteus [12] = test: Antibacterial activity against Micrococcus luteus MTCC 2470 assessed as inhibition of bacterial growth by microtiter broth dilution method; assay type: functional
Staphylococcus aureus [13] = test: Inhibition of biofilm formation in Staphylococcus aureus MLS16 MTCC 2940 incubated for 24 hrs by crystal violet staining based microtiter plate method; assay type: functional, organism-based
Candida albicans [14] = test: Inhibition of biofilm formation in Candida albicans MTCC 3017 incubated for 24 hrs by crystal violet staining based microtiter plate method; assay type: functional, organism-based
Escherichia coli [15] = test: Inhibition of biofilm formation in Escherichia coli MTCC 739 incubated for 24 hrs by crystal violet staining based microtiter plate method; assay type: functional, organism-based
Escherichia coli [16] = test: Bactericidal activity against Escherichia coli MTCC 739; assay type: functional
Staphylococcus aureus [17] = test: Inhibition of biofilm formation in Staphylococcus aureus […] incubated for 24 hrs by crystal violet staining based microtiter plate method; assay type: functional, organism-based
Micrococcus luteus [18] = test: Inhibition of biofilm formation in Micrococcus luteus MTCC 2470 incubated for 24 hrs by crystal violet staining based microtiter plate method; assay type: functional, organism-based
Micrococcus luteus [19] = test: Bactericidal activity against Micrococcus luteus MTCC 2470; assay type: functional
Bacillus subtilis [20] = test: Inhibition of biofilm formation in Bacillus subtilis MTCC 121 incubated for 24 hrs by crystal violet staining based microtiter plate method; assay type: functional, organism-based
Bacillus subtilis [21] = test: Bactericidal activity against Bacillus subtilis MTCC 121; assay type: functional
Pseudomonas aeruginosa [22] = test: Inhibition of biofilm formation in Pseudomonas aeruginosa MTCC 2453 incubated for 24 hrs by crystal violet staining based microtiter plate method; assay type: functional, organism-based
Raoultella planticola [23] = test: Inhibition of biofilm formation in Klebsiella planticola MTCC 530 incubated for 24 hrs by crystal violet staining based microtiter plate method; assay type: functional, organism-based
Candida albicans [24] = test: Fungicidal activity against Candida albicans MTCC 183; assay type: functional
Nakaseomyces glabratus = test: Antifungal activity against Candida glabrata MTCC 3019; assay type: functional
Candida albicans [25] = test: Antifungal activity against Candida albicans MTCC 854; assay type: functional
Pichia kudriavzevii = test: Antifungal activity against Candida krusei MTCC 3020; assay type: functional
Candida albicans [26] = test: Antifungal activity against Candida albicans MTCC 4748; assay type: functional
Candida parapsilosis = test: Antifungal activity against Candida parapsilosis MTCC 1745; assay type: functional; details: Lodderomyces parapsilosis
[Candida] aaseri = Antifungal activity against Candida aaseri MTCC 1962; assay type: functional; details: Yamadazyma aaseri
Candida albicans [27] = test: Antifungal activity against Candida albicans MTCC 1637; assay type: functional
Candida albicans [28] = test: Antifungal activity against Candida albicans MTCC 183; assay type: functional
Candida albicans [29] = test: Antifungal activity against Candida albicans MTCC 227; assay type: functional
Candida albicans [30] = test: Antifungal activity against Candida albicans MTCC 3958; assay type: functional
Pichia sporocuriosa = test: Antifungal activity against Issatchenkia hanoiensis MTCC 4755; assay type: functional
Candida albicans [31] = test: Antifungal activity against Candida albicans MTCC 3018; assay type: functional
Pseudomonas aeruginosa [32] = test: Bactericidal activity against Pseudomonas aeruginosa MTCC 2453; assay type: functional

SMILES	MIC (Staphylococcus aureus [2])	MIC (Staphylococcus aureus [4])	MIC (Pseudomonas aeruginosa [5])	MIC (Escherichia coli [8])	MIC (Bacillus subtilis [10])	MIC (Micrococcus luteus [12])	MIC (Raoultella planticola [6])	IC50 (Staphylococcus aureus [13])	IC50 (Candida albicans [14])	IC50 (Escherichia coli [15])	IC50 (Staphylococcus aureus [17])	IC50 (Raoultella planticola [23])	IC50 (Micrococcus luteus [18])	IC50 (Bacillus subtilis [20])	IC50 (Pseudomonas aeruginosa [22])	further results
COc1ccc(-n2cc(COc3ccc(/C=N/Nc4nc(-c5ccc(C)cc5)cs4)cc3)nn2)cc1	15.7 µM (≈ 7.8 µg/mL)	> 252 µM	> 252 µM	> 252 µM	> 252 µM	> 252 µM	> 252 µM									selectivity ratio [1]: 2.57; Activity (THP-1 [3]): Toxic; MBC (Staphylococcus aureus [7]): 31.4 µM (≈ 15.6 µg/mL); CC50 [9]: 40.3 µM; Activity (THP-1 [11]): Toxic
COc1ccc(-n2cc(COc3ccc(/C=N/Nc4nc(-c5cc6cc(Br)cc(Br)c6oc5=O)cs4)cc3)nn2)cc1	> 176 µM	> 176 µM	> 176 µM	5.5 µM (≈ 3.9 µg/mL)	5.5 µM (≈ 3.9 µg/mL)	5.5 µM (≈ 3.9 µg/mL)	> 176 µM	Not Active	Not Active	Not Active	Not Active	Not Active				MBC (Escherichia coli [16]): 11 µM (≈ 7.79 µg/mL); IC50 (Micrococcus luteus [18]; Micrococcus luteus, MTCC 2470, 24 h, read-out: IC50): 45.1 µM; MBC (Micrococcus luteus [19]): 11 µM (≈ 7.79 µg/mL); IC50 (Bacillus subtilis [20]; Bacillus subtilis, MTCC 121, 24 h, read-out: IC50): 42.6 µM; MBC (Bacillus subtilis [21]): 11 µM (≈ 7.79 µg/mL); IC50 (Pseudomonas aeruginosa [22]; Pseudomonas aeruginosa, MTCC 2453, 24 h, read-out: IC50): 110 µM
COc1ccc(-n2cc(COc3ccc(/C=N/Nc4nc(-c5cc6cc(Cl)cc(Cl)c6oc5=O)cs4)cc3)nn2)cc1	> 202 µM	> 202 µM	> 202 µM	> 202 µM	> 202 µM	> 202 µM	> 202 µM	Not Active	Not Active	Not Active	Not Active	Not Active	Not Active	Not Active	Not Active	
COc1ccc(-n2cc(COc3ccc(/C=N/Nc4nc(-c5cc6cc([N+](=O)[O-])cc([N+](=O)[O-])c6oc5=O)cs4)cc3)nn2)cc1	> 195 µM	> 195 µM	> 195 µM	> 195 µM	> 195 µM	> 195 µM	> 195 µM	Not Active	Not Active	Not Active	Not Active	Not Active	Not Active	Not Active	Not Active	MFC (Candida albicans [24]): 12.2 µM (≈ 7.82 µg/mL); MIC (Nakaseomyces glabratus): > 195 µM; MIC (Candida albicans [25]): > 195 µM; MIC (Pichia kudriavzevii): > 195 µM; MIC (Candida albicans [26]): > 195 µM; MIC (Candida parapsilosis): > 195 µM; MIC ([Candida] aaseri): > 195 µM; MIC (Candida albicans [27]): > 195 µM; MFC (Candida albicans [28]): 12.2 µM (≈ 7.82 µg/mL); MIC (Candida albicans [28]): 6.1 µM (≈ 3.91 µg/mL); MIC (Candida albicans [29]): > 195 µM; MIC (Candida albicans [30]): > 195 µM; MIC (Pichia sporocuriosa): > 195 µM; MIC (Candida albicans [31]): > 195 µM
COc1ccc(-n2cc(COc3ccc(/C=N/Nc4nc(-c5ccc(Br)cc5)cs4)cc3)nn2)cc1	> 223 µM	> 223 µM	27.7 µM (≈ 15.6 µg/mL)	> 223 µM	13.8 µM (≈ 7.75 µg/mL)	13.8 µM (≈ 7.75 µg/mL)	> 223 µM									selectivity ratio [1]: 0.16; Activity (THP-1 [3]): Toxic; MBC (Micrococcus luteus [19]): 27.7 µM (≈ 15.6 µg/mL); CC50 [9]: 35.6 µM; Activity (THP-1 [11]): Toxic; MBC (Pseudomonas aeruginosa [32]): 111 µM (≈ 62.4 µg/mL); MBC (Bacillus subtilis [21]): 55.5 µM (≈ 31.2 µg/mL)

The next lines start with results.

MIC (Staphylococcus aureus [2])	MIC (Staphylococcus aureus [4])	MIC (Pseudomonas aeruginosa [5])	MIC (Escherichia coli [8])	MIC (Bacillus subtilis [10])	MIC (Micrococcus luteus [12])	SMILES	MIC (Raoultella planticola [6])	IC50 (Staphylococcus aureus [13])	IC50 (Candida albicans [14])	IC50 (Escherichia coli [15])	IC50 (Staphylococcus aureus [17])	IC50 (Raoultella planticola [23])	IC50 (Micrococcus luteus [18])	IC50 (Bacillus subtilis [20])	IC50 (Pseudomonas aeruginosa [22])	further results
> 223 µM	> 223 µM	> 223 µM	> 223 µM	> 223 µM	> 223 µM	COc1ccc(-n2cc(COc3ccc(/C=N/Nc4nc(-c5ccc(F)cc5)cs4)cc3)nn2)cc1	> 223 µM									
> 186 µM	> 186 µM	> 186 µM	> 186 µM	> 186 µM	> 186 µM	CCOc1cc(Br)cc2cc(-c3csc(N/N=C/c4ccc(OCc5cn(-c6ccc(OC)cc6)nn5)cc4)n3)c(=O)oc12	> 186 µM	Not Active	Not Active	Not Active	Not Active	Not Active	Not Active	Not Active	Not Active	
